Source: paper PMC11056381, “Characterization and evaluation of cytotoxic and antimicrobial activities of cyclotides from Viola japonica” (Scientific Reports, 2024)
In brackets after ≈: the same amount, converted by molar mass. Counter-ions that a name gives are not always drawn. Like-named read-outs stand apart in the source and are kept apart here. Residues, ends and D or L forms follow the SMILES beside them.

Tests used:
[1] = test system: Acinetobacter baumannii (ATCC19606); test: microbe, parasite or virus in culture
Text: (§1) Viba 11, originally discovered in Viola baoshanensis[39] and found in other plants such as Viola tricolor[40], Viola betonicifolia, and Viola philippica, lacks biological activity studies. […] All purified cyclotides underwent antibacterial testing against Gram-positive bacterium Staphylococcus aureus (CMCC(B)26003-2-10) and Bacillus subtilis (CMCC(B)63501), Gram-negative bacteria, including Acinetobacter baumannii (ATCC19606), Escherichia coli (CMCC(B)44102-2-6), and Salmonella paratyphi (CMCC(B)50094-2-9).
(§2) Bacterial fluids are cultured overnight at 37 °C. The next day, the bacterial liquids are diluted to a concentration of 10^6 CFU/ml. Prepare different concentrations of cyclotide drugs and kanamycin sulfate in advance, and sequentially add the drugs and bacterial liquid to the 96-well plate. Negative controls consisted of sterile water and bacterial liquid. The plate is cultured overnight at 37 °C and observe whether the solution remains clear to see the growth of the bacterial suspension. Each test was performed three times at least.

[2] = test system: Bacillus subtilis (CMCC(B)63501); test: microbe, parasite or virus in culture
Text: as §1, §2

[3] = test system: Escherichia coli (CMCC(B)44102-2-6); test: microbe, parasite or virus in culture
Text: as §1, §2

[4] = test system: Salmonella paratyphi (CMCC(B)50094-2-9); test: MIC, broth dilution in 96-well plate; type: cell-based; details: 10^6 CFU/ml, overnight 37 °C, visual clarity, performed at least three times
Text: (§3) Cycloviolacin O2, known for its antimicrobial, hemolytic, and insecticidal activities, has been more extensively investigated[4],[20],[36]–[38]. Viba 11, originally discovered in Viola baoshanensis[39] and found in other plants such as Viola tricolor[40], Viola betonicifolia, and Viola philippica, lacks biological activity studies. These two cyclotides and vija 10 are high in content and easy to purify, and cycloviolacin O2 can also be used as a positive control to conduct activity study. In addition, few vija12 and 31 were extracted for antibacterial experiments. All purified cyclotides underwent antibacterial testing against Gram-positive bacterium Staphylococcus aureus (CMCC(B)26003-2-10) and Bacillus subtilis (CMCC(B)63501), Gram-negative bacteria, including Acinetobacter baumannii (ATCC19606), Escherichia coli (CMCC(B)44102-2-6), and Salmonella paratyphi (CMCC(B)50094-2-9). […] In addition, the MICs of viba 11, cycloviolacin O2 and vija 10 against B. subtilis were respectively 5.4 μM, 2.1 μM and 14.3 μM (Table 1). […] Therefore, it is hypothesized that the lower antimicrobial activity of vija 10 may be attributed to the presence of only one Lys residue in loop 5.
as §2

[5] = test system: Staphylococcus aureus (CMCC(B)26003-2-10); test: MIC, broth dilution in 96-well plate; type: cell-based; details: 10^6 CFU/ml, overnight 37 °C, visual clarity, performed at least three times
Text: as §3, §2

[6] = test system: 4T1 (mouse breast cancer cells); test: MTT cytotoxicity assay; type: cell-based; details: 4T1 cells, 48 h incubation, mean ± SD of at least three repeats
Protocol: (§4) Five types of cells, namely A549 (human non-small cell lung cancer cells), T24 (human bladder cancer cells), 4T1 (mouse breast cancer cells), 7402 (human hepatocellular carcinoma cells), and THLE-3 (human hepatocytes cells), are selected for evaluating the cytotoxicity of viba 11, cycloviolacin O2, and vija 10 using the MTT (3-(4,5-dimethylthiazol-2-yl)-2,5-diphenyltetrazolium bromide) reagent.
(§5) To determine cell toxicity using MTT assay, cells are seeded in a 96-well plate and cultured for 24 h. After that, different concentrations of cyclotides are added to the cells and incubated for 48 h. MTT is then added to react with the cells, and after 4 h, the reaction is terminated by discarding the supernatant and adding dimethyl sulfoxide for resuspension. The absorbance at 570 nm is measured after 10 min of shaking at room temperature. Each test was performed three times at least. The data were analyzed using GraphPad Prism 8. During this process, the drug concentrations were transformed into logarithmic form with a base of 10 and plotted on the x-axis. Cell viability (%) = [A (cyclotides) − A (blank)]/[A (control) − A (blank)] × 100, which was represented on the y-axis. Using this method, we determined the IC50 value for each experiment, with each experiment repeated at least three times and the mean value calculated. The error was represented by the standard deviation of the IC50 obtained from three repetitions.

[7] = test system: 7402 (human hepatocellular carcinoma cells); test: MTT cytotoxicity assay; type: cell-based; details: 7402 cells, 48 h incubation, mean ± SD of at least three repeats
Protocol: as §4, §5

[8] = test system: THLE-3 (human hepatocytes cells); test: MTT cytotoxicity assay; type: cell-based; details: THLE-3 cells, 48 h incubation, mean ± SD of at least three repeats
Protocol: as §4, §5

[9] = test system: T24 (human bladder cancer cells); test: MTT cytotoxicity assay; type: cell-based; details: 48 h incubation, mean ± SD of at least three repeats
Protocol: as §4, §5

[10] = test system: A549 (human non-small cell lung cancer cells); test: MTT cytotoxicity assay; type: cell-based; details: 48 h incubation, mean ± SD of at least three repeats
Protocol: as §4, §5

Acinetobacter baumannii = test: Time killing kinetics; type: cell-based; details: about 10^6 CFU/mL, LB, 37 °C, colony count
Protocol: In this study, we investigated the time-kill kinetics characteristics of plant cyclotides against bacteria. […] It is worth noting that due to experimental constraints, there was a slight discrepancy of a few minutes between theoretical 0 h and actual 0 h. […] Furthermore, we also conducted time-kill kinetics studies using vija 10 against B. subtilis.
Figure 4 (A) The Acinetobacter baumannii time killing kinetics of cycloviolacin O2 at concentration of 1 MIC, 2 MIC, 4 MIC and 8 MIC at 37 °C. (B) The Bacillus subtilis time killing kinetics of vija 10 at concentration of 1 MIC, 2 MIC, 4 MIC at 37 °C. Each test was performed three times at least.
Incubate A. baumannii and B. subtilis in fresh nutrient LB broth at 37 °C until logarithmic growth stage, then dilute to approximately 10^6 CFU/mL, and incubate with cycloviolacin O2 at concentrations of 1 MIC, 2 MIC, 4 MIC, 8 MIC with A. baumannii and vija 10 at concentrations of 1 MIC, 2 MIC, 4 MIC with B. subtilis respectively. Taking the mixture at time points of 0 h, 0.5 h, 1 h, 1.5 h and 2 h, dilute and coat it to solid medium for 24 h. Count the number of colonies on solid culture medium. Each test was performed three times at least. Plotting a line graph with time on the x-axis and bacterial survival on the y-axis using GraphPad Prism 8. Statistical analysis of bacterial viability at different time points to determine the bactericidal and bacteriostatic effects of cyclotides.

[11] = Acinetobacter baumannii ATCC19606, 10^6 CFU/ml, 96-well plate, overnight 37 °C, visual clarity, performed at least three times
[12] = 10^6 CFU/ml, 96-well plate, overnight 37 °C, visual clarity, performed at least three times

`NC[C@H]1O[C@H](O[C@H]2[C@H](O)[C@@H](O[C@H]3O[C@H](CO)[C@@H](O)[C@H](N)[C@H]3O)[C@H](N)C[C@@H]2N)[C@H](O)[C@@H](O)[C@@H]1O` [Kanamycin sulfate, reference compound] showed an MIC ([1]; Acinetobacter baumannii, ATCC19606) of 8 µM, an MIC [2] of 4 µM and an MIC [3] of 8 µM.
In the case of `CC[C@H](C)[C@@H]1NC(=O)[C@H](C)NC(=O)[C@H](CO)NC(=O)[C@H](CO)NC(=O)[C@H]([C@@H](C)CC)NC(=O)[C@@H]2CSSC[C@@H]3NC(=O)[C@H](C(C)C)NC(=O)[C@H](CCCCN)NC(=O)[C@H](CO)NC(=O)[C@H](CCCCN)NC(=O)[C@@H]4CSSC[C@H](NC(=O)[C@H](CO)NC(=O)[C@H](CCC(=O)O)NC(=O)CNC(=O)[C@H](CSSC[C@H](NC(=O)CNC1=O)C(=O)N[C@@H](CO)C(=O)N4)NC(=O)[C@@H]1CCCN1C(=O)[C@H]([C@@H](C)CC)NC(=O)CNC(=O)[C@H](CC(N)=O)NC(=O)[C@H](CCCNC(=N)N)NC(=O)[C@H](Cc1ccc(O)cc1)NC3=O)C(=O)N[C@@H](C(C)C)C(=O)N[C@@H](Cc1c[nH]c3ccccc13)C(=O)N[C@@H]([C@@H](C)CC)C(=O)N1CCC[C@H]1C(=O)N2` [cycloviolacin O2, reference compound] (HELM PEPTIDE1{A.I.G.C.S.C.K.S.K.V.C.Y.R.N.G.I.P.C.G.E.S.C.V.W.I.P.C.I.S.S}$PEPTIDE1,PEPTIDE1,4:R3-18:R3|PEPTIDE1,PEPTIDE1,6:R3-22:R3|PEPTIDE1,PEPTIDE1,11:R3-27:R3|PEPTIDE1,PEPTIDE1,1:R1-30:R2$$$V2.0), the MIC [4] is reported as greater than 16.8 µM, the MIC [5] is reported as greater than 16.8 µM and the MIC [1, 11] is reported as 4.2 µM (≈ 13.2 µg/mL). For the same molecule, the MIC [2, 12] was 2.1 µM (≈ 6.6 µg/mL), the MIC [3, 12] was greater than 16.8 µM and the IC50 [6] was 162 ± 10 nM. For the same molecule, the IC50 [7] was 1332 ± 10 nM, the IC50 [8] was 1210 ± 50 nM and the IC50 [9] was 1690 ± 160 nM. For the same molecule, the IC50 [10] was 149 ± 30 nM, the “time of treatment to complete eradication of A. baumannii” value (Acinetobacter baumannii; 4 MIC) was 2 h and the “time of treatment to complete eradication of A. baumannii” value (Acinetobacter baumannii; 8 MIC) was 1.5 h.
With `CC[C@H](C)[C@@H]1NC(=O)[C@H](Cc2ccc(O)cc2)NC(=O)[C@H](CO)NC(=O)CNC(=O)[C@H](CC(N)=O)NC(=O)[C@H](CCCCN)NC(=O)[C@H](CCCCN)NC(=O)[C@@H]2CSSC[C@@H]3NC(=O)[C@H](CCCCN)NC(=O)[C@H](CC(C)C)NC(=O)[C@H](CCCCN)NC(=O)[C@H](C(C)C)NC(=O)[C@@H]4CSSC[C@H](NC(=O)[C@H]([C@@H](C)O)NC(=O)[C@H](CSSC[C@H](NC(=O)[C@H](CO)NC1=O)C(=O)NCC(=O)N[C@@H](CCC(=O)O)C(=O)N[C@@H]([C@@H](C)O)C(=O)N4)NC(=O)CNC(=O)[C@@H]1CCCN1C(=O)[C@H]([C@@H](C)O)NC(=O)[C@H](Cc1ccc(O)cc1)NC3=O)C(=O)N[C@@H]([C@@H](C)O)C(=O)N[C@@H](Cc1c[nH]c3ccccc13)C(=O)N1CCC[C@H]1C(=O)N[C@@H](C)C(=O)N2` [vija 12] (HELM PEPTIDE1{A.C.K.K.N.G.S.Y.I.S.C.G.E.T.C.V.K.L.K.C.Y.T.P.G.C.T.C.T.W.P}$PEPTIDE1,PEPTIDE1,2:R3-20:R3|PEPTIDE1,PEPTIDE1,11:R3-25:R3|PEPTIDE1,PEPTIDE1,15:R3-27:R3|PEPTIDE1,PEPTIDE1,1:R1-30:R2$$$V2.0) the MIC [1, 11] was 14.9 µM (≈ 48 µg/mL).
With `CC(C)C[C@@H]1NC(=O)[C@@H]2CCCN2C(=O)[C@H](Cc2ccc(O)cc2)NC(=O)[C@H](CCCCN)NC(=O)[C@H](C)NC(=O)[C@@H]2CSSC[C@@H]3NC(=O)[C@H]([C@@H](C)O)NC(=O)[C@H](CCC(=O)O)NC(=O)CNC(=O)[C@@H]4CSSC[C@H](NC(=O)CNC(=O)[C@@H]5CCCN5C(=O)[C@H]([C@@H](C)O)NC(=O)[C@H](Cc5ccccc5)NC(=O)[C@H](CSSC[C@H](NC1=O)C(=O)N[C@@H](CO)C(=O)N[C@@H](CCCCN)C(=O)N[C@@H](CC(N)=O)C(=O)NCC(=O)N[C@@H](CO)C(=O)N[C@@H](C(C)C)C(=O)N[C@@H]([C@@H](C)O)C(=O)NCC(=O)N4)NC(=O)[C@H](CCCCN)NC(=O)[C@H](Cc1ccccc1)NC(=O)[C@H](CCCCN)NC(=O)[C@H](Cc1ccccc1)NC3=O)C(=O)N[C@@H](CCCCN)C(=O)N2` [vija 31] (HELM PEPTIDE1{A.K.Y.P.L.C.S.K.N.G.S.V.T.G.C.G.E.T.C.F.K.F.K.C.F.T.P.G.C.K.C}$PEPTIDE1,PEPTIDE1,6:R3-24:R3|PEPTIDE1,PEPTIDE1,15:R3-29:R3|PEPTIDE1,PEPTIDE1,19:R3-31:R3|PEPTIDE1,PEPTIDE1,1:R1-31:R2$$$V2.0) the MIC [1, 11] was 14.9 µM (≈ 48.9 µg/mL).
